Measurements published in patent US10307350B2, “Morphogenetically active amorphous calcium polyphosphate nanoparticles for therapeutic applications” (NanotecMARIN GmbH, priority 2014, dated 2019).

Key:
Format in all cases: cell-based, mouse
[1] = tested on: MC3T3 cells; assay: Microscopic density of attached cells after 72 h; settings: single component: aCa-polyP-NP 3 μg/ml or retinol 10 μM
Method: (§1) Mouse calvaria cells MC3T3-E1 cells (ATCC-CRL-2593) are used for the experiments and cultivated in a-MEM (Gibco—Invitrogen) containing 20% fetal calf serum [FCS] (Gibco). The medium contains 2 mM L-glutamine, 1 mM Na-pyruvate and 50 μg/ml of gentamycin. […] Reaching 80% confluency, the cells are detached using trypsin/EDTA and continuously subcultured at a density of 5·10^3 cells/ml. The cells are seeded at a density of 5·10^3 cells/well. Medium/serum change was every 3 d.
This synergistically-acting effect of the two test components can also be followed microscopically. In the absence of any of the components the density of the MC3T3 cells after the 72 h incubation is only low. […] Likewise low is the number of cells onto the plastic surface if 10 μM retinol is added.

[2] = tested on: collagen type III (COL-III); assay: Collagen expression RT-qPCR in MC3T3-E1 cells, collagen type III; settings: single component: 3 μM retinol alone, or polyP sample in the absence of retinol; untreated 0.17±0.02
Method: Mouse calvaria cells MC3T3-E1 cells (ATCC-CRL-2593) are used for the experiments and cultivated in a-MEM (Gibco-Invitrogen) containing 20% fetal calf serum [FCS] (Gibco). The medium contains 2 mM L-glutamine, 1 mM Na-pyruvate and 50 μg/ml of gentamycin. […] Reaching 80% confluency, the cells are detached using trypsin/EDTA and continuously subcultured at a density of 5·10^3 cells/ml. The cells are seeded at a density of 5·10^3 cells/well. Medium/serum change was every 3 d. The aCa-polyP-NP are added at the indicated concentration to the cultures, usually 3 μg/ml. Retinol is added in parallel; it is dissolved at 1 mg/ml ethanol and then diluted in DMSO [dimethyl sulfoxide] at the indicated concentrations. […], Wang […], Kropf […]. […] Acta Biomaterialia 2011; 7:2661-2671) is studied in parallel. […] After a 5 d incubation period the cells were collected and subjected to RT-qPCR analyses. […] The effect of 3 μM retinol on Na-polyP and on different nanoparticles as well as on the retinol/nanospheres was tested in a comparative way. The expression level of collagen type III was determined by RT-qPCR (FIG. 11). The expression values are correlated to the expression of the house-keeping gene GAPDH. […] Then the ratios between the levels in the cells, exposed to retinol or the nanoparticles/nanospheres alone or together, have been calculated and plotted.

[3] = tested on: MC3T3 cells; assay: Cell proliferation / cell viability XTT assay; settings: retinol 0.3 to 30 μM, absence of aCa-polyP-NP, 72 h
Method: as §1
The aCa-polyP-NP are added at the indicated concentration to the cultures, usually 3 μg/ml. Retinol is added in parallel; it is dissolved at 1 mg/ml ethanol and then diluted in DMSO [dimethyl sulfoxide] at the indicated concentrations. […]
Cell proliferation can be determined, for example, by a colorimetric method based on the tetrazolium salt XTT (Cell Proliferation Kit II; Roche). The absorbance is determined at […] and subtracted form the background values (500 nm). In the experiments described in Examples, the viable cells have been determined after 72 h.

## CC1=C(/C=C/C(C)=C/C=C/C(C)=C/CO)C(C)(C)CCC1 [retinol, all-trans retinol]
[1]
  density of the cells attached to the substrate: low
[2]
  collagen type III expression level correlated to GAPDH: 0.25±0.03
[3]
  growth rate of the MC3T3 cells: did not change significantly
